Experiments:
Assay in all cases: Cell viability drug screen, 12-point dose-response AUC
Format in all cases: cell-based, human
FU97 = test system: FU97; parameters: Average Area Under the Viability Curve (AUC), AUC norm value: scale not given here; details: FU97 cells; 72 hours
Summary of the method: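 Trapezoidal AUC of a 12-point, DMSO-normalized dose-response curve. Luminescent viability was measured after 72 h of exposure at 37° C to half-log serial dilutions (0.5% DMSO control), dosed 24 h after plating FU97 cells at 5×10^3 per well.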

YCC3 = YCC3 cells; 72 hours
Summary of the method: (§1)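 Luminescent viability readings, taken 15 min after reagent addition at room temperature, were normalized to the 0.5% DMSO control to build 12-point dose-response curves. Trapezoidal integration gave the AUC. Cells had been plated at 5×10^3 per well and then exposed to half-log dilutions for 72 h.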

SNU1 = SNU1 cells; 72 hours
Summary of the method: as §1

SNU1967 = SNU1967 cells; 72 hours
Summary of the method: as §1

KATO3 = KATO3 cells; 72 hours
Summary of the method: as §1

NCC19 = NCC19 cells; 72 hours
Summary of the method: as §1

SNU16 = SNU16 cells; 72 hours
Summary of the method: as §1

SNU1750 = SNU1750 cells (SEM subtype); 72 hours
Summary of the method: as §1

YCC11 = YCC11 cells (SEM subtype); 72 hours
Summary of the method: as §1

NCC24 = NCC24 cells; 72 hours
Summary of the method: as §1

MKN28 = MKN28 cells; 72 hours
Summary of the method: as §1

YCC2 = YCC2 cells; 72 hours
Summary of the method: as §1

SNU719 = SNU719 cells; 72 hours
Summary of the method: as §1

SNU601 = SNU601 cells; 72 hours
Summary of the method: as §1

SK4 = SK4 cells (SEM subtype); 72 hours
Summary of the method: as §1

SNU620 = SNU620 cells; 72 hours
Summary of the method: as §1

MKN45 = MKN45 cells (non-SEM subtype); 72 hours
Summary of the method: as §1

SNU216 = SNU216 cells (non-SEM subtype); 72 hours
Summary of the method: as §1

SNU638 = SNU638 cells; 72 hours
Summary of the method: as §1

MKN1 = MKN1 cells; 72 hours
Summary of the method: as §1

SNU668 = SNU668 cells (SEM subtype); 72 hours
Summary of the method: as §1

MKN74 = MKN74 cells; 72 hours
Summary of the method: as §1

NCI_N87 = NCI_N87 cells; 72 hours
Summary of the method: as §1

Hs746T = Hs746T cells (SEM subtype); 72 hours
Summary of the method: as §1

SNU484 = SNU484 cells (SEM subtype); 72 hours
Summary of the method: as §1

NCC20 = NCC20 cells; 72 hours
Summary of the method: as §1

OCUM1 = OCUM1 cells; 72 hours
Summary of the method: as §1

NCC59 = NCC59 cells; 72 hours
Summary of the method: as §1

AGS = AGS cells (non-SEM subtype); 72 hours
Summary of the method: as §1

SMILES | Average Area Under the Viability Curve (AUC), AUC norm value (FU97) | Average Area Under the Viability Curve (AUC), AUC norm value (YCC3) | Average Area Under the Viability Curve (AUC), AUC norm value (SNU1) | Average Area Under the Viability Curve (AUC), AUC norm value (SNU1967) | Average Area Under the Viability Curve (AUC), AUC norm value (KATO3) | Average Area Under the Viability Curve (AUC), AUC norm value (NCC19) | Average Area Under the Viability Curve (AUC), AUC norm value (SNU16) | Average Area Under the Viability Curve (AUC), AUC norm value (SNU1750) | Average Area Under the Viability Curve (AUC), AUC norm value (YCC11) | Average Area Under the Viability Curve (AUC), AUC norm value (NCC24) | Average Area Under the Viability Curve (AUC), AUC norm value (MKN28) | Average Area Under the Viability Curve (AUC), AUC norm value (YCC2) | Average Area Under the Viability Curve (AUC), AUC norm value (SNU719) | Average Area Under the Viability Curve (AUC), AUC norm value (SNU601) | Average Area Under the Viability Curve (AUC), AUC norm value (SK4) | Average Area Under the Viability Curve (AUC), AUC norm value (SNU620) | Average Area Under the Viability Curve (AUC), AUC norm value (MKN45) | Average Area Under the Viability Curve (AUC), AUC norm value (SNU216) | Average Area Under the Viability Curve (AUC), AUC norm value (SNU638) | Average Area Under the Viability Curve (AUC), AUC norm value (MKN1) | further results
Cc1ccc(S(=O)(=O)/C=C/C#N)cc1 [BAY 11-7082 (BAY 11-7821), BAY 11-7082] | 0.0931 | 0.7116 | 1.33 | −0.8028 | 0.7229 | −0.07527 | −0.6715 | −1.012 | −1.538 | 0.8357 | −0.1987 | 0 | 1.377 | 0.7218 | −0.7659 | −0.1923 | 0.194 | 0.3865 | −1.497 | −0.3248 | Average Area Under the Viability Curve (AUC), AUC norm value (SNU668): 0.8081; Average Area Under the Viability Curve (AUC), AUC norm value (MKN74): 0.03633; Average Area Under the Viability Curve (AUC), AUC norm value (NCI_N87): 0.5073; Average Area Under the Viability Curve (AUC), AUC norm value (Hs746T): −0.5796; Average Area Under the Viability Curve (AUC), AUC norm value (SNU484): −0.4504; Average Area Under the Viability Curve (AUC), AUC norm value (NCC20): −0.8287; Average Area Under the Viability Curve (AUC), AUC norm value (OCUM1): 0.7491; Average Area Under the Viability Curve (AUC), AUC norm value (NCC59): 1.031; Average Area Under the Viability Curve (AUC), AUC norm value (AGS): −0.5085
O=C(/C=C/c1cccnc1)NCCCCC1CCN(C(=O)c2ccccc2)CC1 [APO866 (FK866), APO866] | −3.149 | 1.423 | 0.9726 | −3.653 | 1.553 | −4.01 | −4.562 | −3.767 | −2.215 | −0.07585 | −6.855 | 1.331 | 1.275 | 4.976 | 0.7403 | 0.3488 | 0.6191 | −5.897 | 0.6032 | −5.502 | Average Area Under the Viability Curve (AUC), AUC norm value (SNU668): −3.304; Average Area Under the Viability Curve (AUC), AUC norm value (MKN74): −6.53; Average Area Under the Viability Curve (AUC), AUC norm value (NCI_N87): 0.8343; Average Area Under the Viability Curve (AUC), AUC norm value (Hs746T): −4.382; Average Area Under the Viability Curve (AUC), AUC norm value (SNU484): −6.823; Average Area Under the Viability Curve (AUC), AUC norm value (NCC20): 2.35; Average Area Under the Viability Curve (AUC), AUC norm value (OCUM1): 0.949; Average Area Under the Viability Curve (AUC), AUC norm value (NCC59): 0.7919; Average Area Under the Viability Curve (AUC), AUC norm value (AGS): 0
COc1cc([C@@H]2c3cc4c(cc3[C@@H](O[C@@H]3O[C@@H]5CO[C@@H](c6cccs6)O[C@H]5[C@H](O)[C@H]3O)[C@H]3COC(=O)[C@H]23)OCO4)cc(OC)c1O [Teniposide (Vumon), Teniposide] | 1.309 | 2.1949 | −0.3019 | −0.7519 | 1.852 | 2.415 | −0.8192 | −0.5618 | −1.342 | −0.5766 | 0.1008 | 0.249 | 2.899 | −1.094 | −0.2681 | 0 | 1.933 | 0.9296 | −0.3584 | −1.955 | Average Area Under the Viability Curve (AUC), AUC norm value (SNU668): −0.6175; Average Area Under the Viability Curve (AUC), AUC norm value (MKN74): 0.3993; Average Area Under the Viability Curve (AUC), AUC norm value (NCI_N87): 2.319; Average Area Under the Viability Curve (AUC), AUC norm value (Hs746T): 0.6261; Average Area Under the Viability Curve (AUC), AUC norm value (SNU484): −1.211; Average Area Under the Viability Curve (AUC), AUC norm value (NCC20): −0.8716; Average Area Under the Viability Curve (AUC), AUC norm value (OCUM1): 1.001; Average Area Under the Viability Curve (AUC), AUC norm value (NCC59): 1.59; Average Area Under the Viability Curve (AUC), AUC norm value (AGS): −2.042
COC(=O)Nc1nc2ccc(C(=O)c3cccs3)cc2[nH]1 [Nocodazole] | 0.3797 | 3.066 | −0.7242 | −0.07292 | 3.188 | 0.8717 | −1.507 | 0.7502 | −0.8279 | 0 | −0.1478 | 1.3363 | 4.976 | 1.743 | −0.374 | −0.735 | 2.005 | 2.032 | −0.1875 | −0.6519 | Average Area Under the Viability Curve (AUC), AUC norm value (SNU668): −0.1188; Average Area Under the Viability Curve (AUC), AUC norm value (MKN74): 0.7081; Average Area Under the Viability Curve (AUC), AUC norm value (NCI_N87): −0.7843; Average Area Under the Viability Curve (AUC), AUC norm value (Hs746T): 1.28; Average Area Under the Viability Curve (AUC), AUC norm value (SNU484): −0.8136; Average Area Under the Viability Curve (AUC), AUC norm value (NCC20): −1.695; Average Area Under the Viability Curve (AUC), AUC norm value (OCUM1): 0.7248; Average Area Under the Viability Curve (AUC), AUC norm value (NCC59): 3.0345; Average Area Under the Viability Curve (AUC), AUC norm value (AGS): −1.573

— patent US20250129430A1, “HIGH ATP-AFFINITY PROTEIN AS THERAPEUTIC TARGET FOR INTRACTABLE CANCER MOLECULAR SUBTYPES AND INHIBITOR THEREOF” (VeraVerse Co., Ltd., priority 2021, published 2025)
